Laboratory results taken from patent US8362011B2, “Tricyclic triazolic compounds” (Laboratories del Dr. Esteve, S.A., priority 2007, dated 2013).
Values joined by “and” are separate entries in the source; they are usually repeats but may differ in a detail not shown here. Equal entries are not always repeated.

What was measured:
σ1-receptor = biological target: T1, σ1-receptor (Cavia porcellus, UniProt Q60492); assay: σ1-receptor binding assay, [3H]-(+)-pentazocine, guinea pig brain membranes; settings: [3H]-(+)-pentazocine 5.0 nM; for % Displacement (10^−6 M): 10^−6 M compound
T1 construct: Guinea pig brains were homogenized in 10 vols; (w/v) of Tris-HCl 50 mM 0.32 M sucrose; from tissue; host or cells: guinea pig brain membranes
Experimental: Brain membrane preparation and binding assays for the σ1-receptor were performed as described (DeHaven-Hudkins, D. L., L.C. Fleissner, and F. Y. Ford-Rice, 1992, Characterization of the binding of [^3H](+)pentazocine to σ recognition sites in guinea pig brain, Eur. J. Pharmacol. 227, 371-378) with some modifications. Guinea pig brains were homogenized in 10 vols. (w/v) of Tris-HCl 50 mM 0.32 M sucrose, pH 7.4, with a Kinematica Polytron PT 3000 at 15000 r.p.m. for 30 s. The homogenate was centrifuged at 1000 g for 10 min at 4° C. and the supernatants collected and centrifuged again at 48000 g for 15 min at 4° C. The pellet was resuspended in 10 volumes of Tris-HCl buffer (50 mM, pH 7.4), incubated at 37° C. for 30 min, and centrifuged at 48000 g for 20 min at 4° C. Following this, the pellet was re-suspended in fresh Tris-HCl buffer (50 mM, pH 7.4) and stored on ice until use.
The radioligand used was [^3H]-(+)-pentazocine at 5.0 nM and the final volume was 200 μl. The incubation was initiated with the addition of 100 μA of membrane at a final tissue concentration of approximately 5 mg tissue net weight/mL and the incubation time was 150 m. at 37° C. After incubation, the membranes were collected onto pretreated glass fiber filterplate (MultiScreen-FC, Millipore), with polyethylenimine 0.1%. The filters were washed two times with 200 μA of washing buffer (50 mM Tris Cl, pH=7.4) and then 25 μA of Ecoscint H liquid scintillation cocktail were added. Microplates were allowed to set for several hours and then quantified by liquid scintillation spectrophotometry (1450 Microbeta, Wallac). Nonspecific binding was determined with 1 μM haloperidol.

T1 sequence (Q60492 whole entry): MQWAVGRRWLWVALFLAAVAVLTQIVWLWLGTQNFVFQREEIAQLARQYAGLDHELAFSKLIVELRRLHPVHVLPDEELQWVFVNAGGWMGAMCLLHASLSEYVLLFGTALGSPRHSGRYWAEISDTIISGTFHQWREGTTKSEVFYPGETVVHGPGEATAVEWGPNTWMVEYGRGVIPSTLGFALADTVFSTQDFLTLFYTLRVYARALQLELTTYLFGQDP

Ki (σ1-receptor)	% Displacement (10^−6 M) (σ1-receptor) [%]	melting point [°C]	Structure (SMILES)
> 1000 nM	–	103 to 104	Cc1nnn2c1CO[C@@H]1CN(Cc3ccccc3)C[C@H]12 (relative stereo) [Example 5, (5a,8a-trans)-7-benzyl-3-methyl-4,5a,6,7,8,8a-hexahydropyrrolo[3,4-b][1,2,3]triazolo[1,5-d][1,4]oxazine]
31.3 ± 8.7 nM	–	137 to 138	FC(F)(F)c1ccc(-c2nnn3c2CO[C@@H]2CN(Cc4ccccc4)C[C@H]23)cc1 (relative stereo) [Example 6, (5a,8a-trans)-7-benzyl-3-(4-(trifluoromethyl)phenyl)-4,5a,6,7,8,8a-hexa hydropyrrolo[3,4-b][1,2,3]triazolo[1,5-d][1,4]oxazine]
–	87	197 to 198	Clc1ccc(-c2nnn3c2CO[C@@H]2CN(Cc4ccccc4)C[C@H]23)cc1 (relative stereo) [Example 9, (5a,8a-trans)-7-benzyl-3-(4-chlorophenyl)-4,5a,6,7,8,8a-hexahydro pyrrolo[3,4-b][1,2,3]triazolo[1,5-d][1,4]oxazine]
26.9 ± 4.4 nM	–	154 to 155	c1ccc(CN2C[C@@H]3[C@@H](C2)OCc2c(-c4ccccc4)nnn23)cc1 (relative stereo) [Example 11, (5a,8a-trans)-7-benzyl-3-phenyl-4,5a,6,7,8,8a-hexahydropyrrolo[3,4-b][1,2,3]triazolo[1,5-d][1,4]oxazine]

Further lines, the molecule ahead of its results:

Structure (SMILES)	Ki (σ1-receptor)	% Displacement (10^−6 M) (σ1-receptor) [%]	melting point [°C]
CCc1nnn2c1CO[C@@H]1CN(Cc3ccc(OC)cc3)C[C@H]12 (relative stereo) [Example 3, (5a,8a-trans)-3-ethyl-7-(4-methoxybenzyl)-4,5a,6,7,8,8a-hexahydro pyrrolo[3,4-b][1,2,3]triazolo[1,5-d][1,4]oxazine]	298 ± 76.2 nM	–	–
c1ccc(CN2C[C@@H]3[C@@H](C2)OCc2cnnn23)cc1 (relative stereo) [Example 4, (5a,8a-trans)-7-benzyl-4,5a,6,7,8,8a-hexahydropyrrolo[3,4-b][1,2,3] triazolo[1,5-d][1,4]oxazine]	–	<50	101 to 102
CCc1nnn2c1CO[C@@H]1CN(Cc3ccccc3)C[C@H]12 (relative stereo) [Example 8, (5a,8a-trans)-7-benzyl-3-ethyl-4,5a,6,7,8,8a-hexahydropyrrolo[3,4-b][1,2,3]triazolo[1,5-d][1,4]oxazine]	375 ± 1.6 nM	–	106 to 107
c1ccc(-c2nnn3c2CO[C@@H]2CNC[C@H]23)cc1 (relative stereo) [Example 13, (5a,8a-trans)-3-phenyl-4,5a,6,7,8,8a-hexahydropyrrolo[3,4-b][1,2,3] triazolo[1,5-d][1,4]oxazine]	283 nM and 262 nM	–	165 to 167
O=C(CCc1ccccc1)N1C[C@@H]2[C@@H](C1)OCc1c(-c3ccccc3)nnn12 (relative stereo) [Example 28, 3-phenyl-1-((5a,8a-trans)-3-phenyl-5a,6,8,8a-tetrahydropyrrolo[3,4-b][1,2,3]triazolo[1,5-d][1,4]oxazin-7(4H)-yl)propan-1-one]	563 nM	–	205 to 206
CCCC(=O)N1C[C@@H]2[C@@H](C1)OCc1c(-c3ccccc3)nnn12 (relative stereo) [Example 29, 1-((5a,8a-trans)-3-phenyl-5a,6,8,8a-tetrahydropyrrolo[3,4-b][1,2,3]triazolo[1,5-d][1,4]oxazin-7(4H)-yl)butan-1-one]	334 nM and 341 nM	–	202 to 204
CCCCCN1C[C@@H]2[C@@H](C1)OCc1c(-c3ccccc3)nnn12 (relative stereo) [Example 41, (5a,8a-trans)-7-pentyl-3-phenyl-4,5a,6,7,8,8a-hexahydropyrrolo[3,4-b][1,2,3]triazolo[1,5-d][1,4]oxazine]	5.47 nM and 6.79 nM	–	–
